In PubChem BioAssay AID602207 (Sanford-Burnham Center for Chemical Genomics, 2012):
The source made the active and inactive calls.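 How the source made its calls: active means IC50 below 100 µM in the TR-FRET assay, unless also active in the caspase-3 counter assay; inactive means the rest, including compounds also active in caspase-3.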

Molecular target: Caspase-3 (Homo sapiens) (UniProt P42574)
Assay: inhibition of recombinant caspase-3 activity – biochemical, luminescence, Caspase-Glo 3/7, set 3, counter-screen for UBC13 polyubiquitin inhibitor project, SAR follow-up (AID 602207)
Conditions: recombinant caspase-3, Caspase-Glo luminescence, 60 min

Sequence of Caspase-3 (Homo sapiens) (P42574 whole entry, looked up): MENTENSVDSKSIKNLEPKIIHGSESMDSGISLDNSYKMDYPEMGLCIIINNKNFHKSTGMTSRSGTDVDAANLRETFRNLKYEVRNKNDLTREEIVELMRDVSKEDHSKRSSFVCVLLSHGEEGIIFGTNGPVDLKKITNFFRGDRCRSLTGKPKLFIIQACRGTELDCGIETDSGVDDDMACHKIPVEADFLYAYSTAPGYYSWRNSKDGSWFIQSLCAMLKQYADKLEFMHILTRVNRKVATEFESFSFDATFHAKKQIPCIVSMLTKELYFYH

Compound	IC50
O=C(Nc1cc(F)ccc1F)C1CCN(c2ncnc3c2nc2n3CCCCC2)CC1	> 100 µM (inactive)
c1nc(N2CCC(N3CCCCC3)CC2)c2nc3n(c2n1)CCCC3	> 100 µM (inactive)
O=C(CCCCCN1C(=O)c2ccccc2C1=O)NCCc1ccccc1	> 100 µM (inactive)
CCOc1ccc(CCNC(=O)CCCCCN2C(=O)c3ccccc3C2=O)cc1OCC	> 100 µM (inactive)
COc1ccc(Cl)cc1NC(=O)C1CCN(c2ncnc3c2nc2n3CCCCC2)CC1	> 100 µM (inactive)
COc1cc(OC)c(NC(=O)C2CCN(c3ncnc4c3nc3n4CCCCC3)CC2)cc1Cl	> 100 µM (inactive)
Fc1ccccc1N1CCN(c2ncnc3c2nc2n3CCCC2)CC1	> 100 µM (inactive)
COc1cc(Cl)c(C)cc1NC(=O)C1CCN(c2ncnc3c2nc2n3CCCCC2)CC1	> 100 µM (inactive)
O=C(Nc1ccc(CN2CCCCC2)cc1)C1CCN(c2ncnc3c2nc2n3CCCCC2)CC1	> 100 µM (inactive)
Cc1ccc(NC(=O)C2CCN(c3ncnc4c3nc3n4CCCCC3)CC2)cc1C	> 100 µM (inactive)
Cc1cc(Cl)ccc1NC(=O)C1CCN(c2ncnc3c2nc2n3CCCCC2)CC1	> 100 µM (inactive)
Cc1c(Cl)cccc1NC(=O)C1CCN(c2ncnc3c2nc2n3CCCCC2)CC1	> 100 µM (inactive)
Cc1ccc(NC(=O)C2CCN(c3ncnc4c3nc3n4CCCCC3)CC2)cc1F	> 100 µM (inactive)
CC1CN(S(=O)(=O)c2ccc(NC(=O)CCCCCN3C(=O)c4ccccc4C3=O)cc2)CC(C)O1 (centres undefined)	> 100 µM (inactive)
Cc1ccc(Cl)cc1N1CCN(c2ncnc3c2nc2n3CCCC2)CC1	> 100 µM (inactive)
c1ccc(CN2CCN(c3ncnc4c3nc3n4CCCC3)CC2)cc1	> 100 µM (inactive)
COc1ccc(NC(=O)C2CCN(c3ncnc4c3nc3n4CCCCC3)CC2)cc1Cl	> 100 µM (inactive)
O=C(Nc1cccc(Cl)c1)C1CCN(c2ncnc3c2nc2n3CCCCC2)CC1	> 100 µM (inactive)
Cc1ccc(NC(=O)C2CCN(c3ncnc4c3nc3n4CCCCC3)CC2)c(Cl)c1	> 100 µM (inactive)
